Experimental data as given in ChEMBL document CHEMBL1137653, “First report of the emergence of CTX-M-type extended-spectrum beta-lactamases (ESBLs) as the predominant ESBL isolated in a U.S. health care system” (2007).

Columns and labels:
Type in all cases: functional
Escherichia coli [1] = assay: Antimicrobial activity against non-CTX-M ESBL producing isolate of Escherichia coli by double-disk diffusion method
Klebsiella oxytoca = assay: Antimicrobial activity against CTX-M ESBL producing isolate of Klebsiella oxytoca at 30 ug by double-disk diffusion method; settings: read-out: DIZ
Escherichia coli [2] = assay: Antimicrobial activity against CTX-M ESBL producing isolate of Escherichia coli at 30 ug by double-disk diffusion method; settings: read-out: DIZ
Klebsiella pneumoniae = assay: Antimicrobial activity against CTX-M ESBL producing isolate of Klebsiella pneumoniae at 30 ug by double-disk diffusion method; settings: read-out: DIZ

| SMILES | diameter of the inhibition zone (DIZ) (Escherichia coli [1]) [mm] | zone of inhibition at 30 µg/disc (Klebsiella oxytoca) [mm] | zone of inhibition at 30 µg/disc (Escherichia coli [2]) [mm] | zone of inhibition at 30 µg/disc (Klebsiella pneumoniae) [mm] |
| --- | --- | --- | --- | --- |
| CC(C)(O/N=C(\C(=O)N[C@@H]1C(=O)N2C(C(=O)[O-])=C(C[n+]3ccccc3)CS[C@H]12)c1csc(N)n1)C(=O)O [CEFTAZIDIME] | 17.3 | 9.2 | 15.9 | 9.8 |
| CO/N=C(\C(=O)N[C@@H]1C(=O)N2C(C(=O)O)=C(COC(C)=O)CS[C@H]12)c1csc(N)n1 [CEFOTAXIME] | 21 | 16.8 | 8.8 | 10.8 |
